Four compounds from patent publication EP1708721B1, “MYOCARDIAL PERFUSION IMAGING USING ADENOSINE RECEPTOR AGONISTS” (Gilead Sciences, Inc., priority 2004, dated 2005) can be followed below.

In one assay the test system is awake rats. Briefly: Example 5: sympathoexcitation, heart rate, blood pressure and plasma catecholamines after i.v. bolus. The format is in vivo. As for the experimental part: The present study was carried out to determine whether CVT-3146, a selective A2A adenosine receptor agonist, causes sympathoexcitation. CVT-3146 (0.31µg/kg-50 µg/kg) was given as a rapid i.v. bolus to awake rats and heart rate (HR) and blood pressure (BP) were monitored. CVT-3146 caused an increase in BP and systolic pressure (SP) at lower doses while at higher doses there was a decrease in BP and SP. […] The increase in HR was evident at the lowest dose of CVT-3146 at which there was no appreciable decrease in BP. ZM241385 (30 µg/kg , N=5), an A2A receptor antagonist, attenuated the decrease in BP (CVT-3146: 14±3%, ZM: 1±1 %) and the increase in HR (CVT: 27±3%, ZM: 18±3%) caused by CVT-3146. Pretreatment with metoprolol (MET, 1 mg/kg, n=5), a beta-blocker, attenuated the increase in HR (CVT: 27±3%, MET: 15±2%), but had no effect on hypotension caused by CVT-3146. In the presence of hexamethonium (HEX, 10 mg/kg, n=5), a ganglionic blocker, the tachycardia was prevented (CVT: 27±3%, HEX: -1±2%), but BP was further reduced (CVT: -11±2%, HEX: -49±5%).

The subject of the next assay is humans. The experiment in a line: Example 1: open label study, CBFv by Doppler flow wire after IV bolus in catheterization patients. The class given is in vivo. The following applies: intracoronary (IC) injection of 18 µg. As for the experimental part:
The purpose of this open label study was to determine the magnitude and duration of effect of CVT-3146 (10-500 µg) on CBFv in humans.
METHODS: Patients undergoing a clinically indicated coronary catheterization with no more than a 70% stenosis in any coronary artery and no more than a 50% stenosis of the study vessel had CBFv determined by Doppler flow wire. Study subject were selected after measuring baseline and peak CBFv after an intracoronary (IC) injection of 18 µg of Ado. Twenty-three patients, who were identified as meeting the study criteria of having a peak to baseline CBFv ratio of ≥ 2.5 in response to Adenosine, received a rapid (≤ 10 sec) peripheral IV bolus of CVT-3146; Doppler signals were stable and interpretable over the time-course of the increase in CBFv in 17 patients.

In assay [1] the test system is subjects (26 men, 9 women). The experiment in a line: Example 6: stress/rest SPECT myocardial perfusion imaging, adenosine versus CVT-3146. The following applies: SPECT MPI, CVT-3146 400 or 500 mcg IV bolus, A infusion. The format is in vivo, human. As for the experimental part:
To determine the ability of CVT-3146 to produce coronary hyperemia and accurately detect CAD, 35 subjects (26 men, 9 women; 67±10 years) underwent both A and CVT-3146 stress/rest MPI, with 10.0±9.1 days between studies. […] CVT-3146 [400 mcg (n=18), 500 mcg (n=17)] was administered as an IV bolus immediately followed by a saline flush, and then a Tc-99m radiopharmaceutical [sestamibi (n=34), tetrofosmin (n=1)]. SPECT images were uniformly processed, intermixed with control studies (normal and fixed-only defects), and interpreted by three observers in a blinded fashion using a 17-segment model. Quantitative analysis was also performed using 4D MSPECT. In addition to three separate readings, a consensus interpretation was performed and then a direct, same-screen comparison of A and CVT-3146 images undertaken to determine relative differences, using 5 regions per study.

The test system of the next assay is awake dogs. The experiment in a line: Example 8: vasodilator effects in different vascular beds of chronically instrumented dogs. The class given is in vivo. Conditions: 250 µg/kg. The source says:
In this study the vasodilator effects of CVT-3146 were compared to those of ADO in different vascular beds in awake dogs. Dogs were chronically instrumented for measurements of the blood flow in coronary (CBF), mesenteric (MBF), hind limb (LBF), and renal (RBF) vascular beds, and hemodynamics.

Where [2] appears, read: pretreatment with metoprolol 1 mg/kg, n=5.
[3] abbreviates: in the presence of hexamethonium 10 mg/kg, n=5.

Turning to `COCCc1ccc(OCC(O)CNC(C)C)cc1` (stereo not shown) [metoprolol], in the assay with awake rats (setting [2]), the “effect on hypotension caused by CVT-3146” value is reported as “no effect” and the “increase in HR caused by CVT-3146” value worked out at 15±2%.

For `Nc1nc(NCCc2ccc(O)cc2)nc2nc(-c3ccco3)nn12` [ZM241385], in the assay on awake rats (with ZM241385 30 µg/kg, N=5), the “decrease in BP caused by CVT-3146” value was 1±1% and the “increase in HR caused by CVT-3146” value worked out at 18±3%.

For the compound `Nc1ncnc2c1ncn2[C@@H]1O[C@H](CO)[C@@H](O)[C@H]1O` [adenosine], in the assay with humans, the “peak to baseline ratio (CBFv)” value is 3.2 ± 0.5. Also, in assay [1] (4D MSPECT), the “summed scores following stress, quantitative methods of analysis” value was 13.7±1.5. For the same compound, the “summed scores following stress, visual” value in assay [1] (17-segment model) is on record as 13.9±1.5. Moreover, in the assay with awake dogs, the “duration for CBF above 2-fold of the baseline” value turned out to be 16 ± 3 s.

With `C[N+](C)(C)CCCCCC[N+](C)(C)C` [hexamethonium], in the assay on awake rats (setting [3]), the “BP (change) caused by CVT-3146” value is on record as -49±5% and the “tachycardia (HR change) caused by CVT-3146” value was -1±2%.
